In ChEMBL document CHEMBL1201862, “PubChem BioAssay data set” (2004):
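How tested: cells in 96-well plates exposed to compound for 48 hours at five concentrations. At the GI50, growth is halved.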 The source made the active and inactive calls. No stated cut-off is given here; in the data, active = GI50 up to about 1.1 µM and inactive = higher.

Key:
Assay in all cases: growth of human tumour cells (NCI), 48 h
[1] = test system: SN12C
[2] = test system: SW-620
[3] = test system: SK-MEL-2
[4] = test system: HCT-116
[5] = test system: Malme-3M
[6] = test system: K562
[7] = test system: CCRF-CEM
[8] = test system: HOP-62
[9] = test system: Hs-578T
[10] = test system: SR
[11] = test system: RPMI-8226
[12] = test system: HCT-15
[13] = test system: NCI-H23
[14] = test system: T47D
[15] = test system: PC-3
[16] = test system: SK-MEL-28
[17] = test system: MDA-N
[18] = test system: MDA-MB-231
[19] = test system: SF-268
[20] = test system: OVCAR-5

`OC(C/C=N/N=C/CC(O)(C(F)(F)Cl)C(F)(F)Cl)(C(F)(F)Cl)C(F)(F)Cl` was tested, and the GI50 [1] was > 10 µM (inactive), the GI50 [2] was > 10 µM (inactive) and the GI50 [3] was > 10 µM (inactive). For the same compound, the GI50 [4] was > 10 µM (inactive), the GI50 [5] was > 10 µM (inactive) and the GI50 [6] was > 10 µM (inactive). The GI50 [7] was > 10 µM (inactive), the GI50 [8] was > 10 µM (inactive) and the GI50 [9] was > 10 µM (inactive). The GI50 [10] was > 10 µM (inactive), the GI50 [11] was > 10 µM (inactive) and the GI50 [12] was > 10 µM. For the same compound, the GI50 [13] was > 10 µM (inactive), the GI50 [14] was > 10 µM (inactive) and the GI50 [15] was > 10 µM (inactive). The GI50 [16] was > 10 µM (inactive), the GI50 [17] was > 10 µM (inactive) and the GI50 [18] was > 10 µM (inactive). The GI50 [19] was > 10 µM (inactive).

In the case of `NNC(=S)NCCNC(=S)NN`, the GI50 [1] is reported as > 100 µM (inactive), the GI50 [2] is reported as > 100 µM (inactive) and the GI50 [3] is reported as > 100 µM (inactive). The GI50 [4] was > 100 µM (inactive), the GI50 [5] was > 100 µM (inactive) and the GI50 [7] was > 100 µM (inactive). For the same compound, the GI50 [8] was > 100 µM (inactive), the GI50 [9] was > 100 µM (inactive) and the GI50 [10] was > 100 µM (inactive). The GI50 [11] was > 100 µM (inactive), the GI50 [13] was > 100 µM (inactive) and the GI50 [14] was > 100 µM (inactive). For the same compound, the GI50 [15] was > 100 µM (inactive), the GI50 [16] was > 100 µM (inactive) and the GI50 [17] was > 100 µM (inactive). For the same compound, the GI50 [18] was 30.3 µM (inactive), the GI50 [19] was > 100 µM (inactive) and the GI50 [20] was > 100 µM (inactive).

In the case of `COc1ccc2cc(C(C)C(=O)N3CCOC3=O)ccc2c1` (configuration not stated), the GI50 [1] is reported as > 100 µM (inactive), the GI50 [2] is reported as > 100 µM (inactive) and the GI50 [4] is reported as > 100 µM (inactive). The GI50 [5] was > 100 µM (inactive), the GI50 [6] was > 100 µM (inactive) and the GI50 [7] was > 100 µM (inactive). The GI50 [8] was > 100 µM (inactive), the GI50 [9] was > 100 µM (inactive) and the GI50 [10] was > 100 µM (inactive). The GI50 [11] was > 100 µM (inactive), the GI50 [12] was > 100 µM and the GI50 [13] was > 100 µM (inactive). For the same compound, the GI50 [14] was > 100 µM (inactive), the GI50 [15] was > 100 µM (inactive) and the GI50 [16] was > 100 µM (inactive). For the same compound, the GI50 [17] was > 100 µM (inactive), the GI50 [18] was > 100 µM (inactive) and the GI50 [19] was > 100 µM (inactive). For the same compound, the GI50 [20] was > 100 µM (inactive).

For `O=C1NC(=O)C(c2c[nH]c3ccccc23)=C1c1cnc[nH]1`, the GI50 [1] was > 100 µM (inactive), the GI50 [2] was 57.3 µM (inactive) and the GI50 [3] was 43.4 µM (inactive). For the same compound, the GI50 [4] was 41.8 µM (inactive), the GI50 [5] was > 100 µM (inactive) and the GI50 [6] was 5.61 µM (inactive). The GI50 [7] was 47.3 µM (inactive), the GI50 [8] was > 100 µM (inactive) and the GI50 [9] was 64.3 µM (inactive). For the same compound, the GI50 [10] was 23.6 µM (inactive), the GI50 [11] was 49 µM (inactive) and the GI50 [12] was > 100 µM. For the same compound, the GI50 [14] was > 100 µM (inactive), the GI50 [15] was > 100 µM (inactive) and the GI50 [16] was > 100 µM (inactive). For the same compound, the GI50 [17] was 74.3 µM (inactive), the GI50 [18] was > 100 µM (inactive) and the GI50 [19] was > 100 µM (inactive). The GI50 [20] was > 100 µM (inactive).

With `O=C(O)c1cc2c(cc1CC(Cc1ccc3c(c1)CCC3)C(=O)O)CCC2` (configuration not stated) the GI50 [1] was > 100 µM (inactive), the GI50 [2] was > 100 µM (inactive) and the GI50 [3] was > 100 µM (inactive). For the same compound, the GI50 [4] was > 100 µM (inactive), the GI50 [5] was > 100 µM (inactive) and the GI50 [7] was > 100 µM (inactive). For the same compound, the GI50 [8] was > 100 µM (inactive), the GI50 [9] was > 100 µM (inactive) and the GI50 [10] was > 100 µM (inactive). The GI50 [11] was > 100 µM (inactive), the GI50 [12] was > 100 µM and the GI50 [13] was > 100 µM (inactive). For the same compound, the GI50 [14] was > 100 µM (inactive), the GI50 [15] was > 100 µM (inactive) and the GI50 [16] was > 100 µM (inactive). For the same compound, the GI50 [17] was > 100 µM (inactive), the GI50 [18] was > 100 µM (inactive) and the GI50 [19] was > 100 µM (inactive). The GI50 [20] was > 100 µM (inactive).

`CCOC(=O)c1sc2c(c1OC(=O)c1ccc(OC)cc1)c(=O)n(-c1ccccc1)c(=S)n2-c1ccccc1` was tested, and the GI50 [1] was 75.7 µM (inactive), the GI50 [2] was > 100 µM (inactive) and the GI50 [4] was 20.7 µM (inactive). The GI50 [5] was 61.7 µM (inactive), the GI50 [6] was > 100 µM (inactive) and the GI50 [7] was > 100 µM (inactive). For the same compound, the GI50 [8] was 54 µM (inactive), the GI50 [9] was > 100 µM (inactive) and the GI50 [10] was 36.5 µM (inactive). The GI50 [11] was > 100 µM (inactive), the GI50 [12] was > 100 µM and the GI50 [13] was > 100 µM (inactive). The GI50 [14] was > 100 µM (inactive), the GI50 [15] was > 100 µM (inactive) and the GI50 [16] was > 100 µM (inactive). For the same compound, the GI50 [17] was > 100 µM (inactive), the GI50 [18] was 16.4 µM (inactive) and the GI50 [19] was > 100 µM (inactive). The GI50 [20] was > 100 µM (inactive).

`Cc1ccc(S(=O)(=O)NC(=O)C2=C(c3ccccc3)[N-]N(C)c3nc4cccc[n+]4nc32)cc1` was tested, and the GI50 [1] was > 100 µM (inactive), the GI50 [2] was 49.2 µM (inactive) and the GI50 [3] was > 100 µM (inactive). For the same compound, the GI50 [4] was > 100 µM (inactive), the GI50 [5] was 99.3 µM (inactive) and the GI50 [6] was > 100 µM (inactive). For the same compound, the GI50 [7] was > 100 µM (inactive), the GI50 [9] was > 100 µM (inactive) and the GI50 [10] was > 100 µM (inactive). For the same compound, the GI50 [11] was 45.6 µM (inactive), the GI50 [12] was > 100 µM and the GI50 [13] was > 100 µM (inactive). The GI50 [14] was 55.1 µM (inactive), the GI50 [15] was > 100 µM (inactive) and the GI50 [16] was > 100 µM (inactive). The GI50 [17] was > 100 µM (inactive), the GI50 [18] was 50.9 µM (inactive) and the GI50 [19] was > 100 µM (inactive). The GI50 [20] was > 100 µM (inactive).
